pIC50: −log10 of the molar value.

Broadly, the pIC50 is −log10 of the IC50, conventionally taken in molar units. A higher pIC50 goes with a low IC50.

Chain of GST tagged IRAK4 (Q9NWZ3 whole entry): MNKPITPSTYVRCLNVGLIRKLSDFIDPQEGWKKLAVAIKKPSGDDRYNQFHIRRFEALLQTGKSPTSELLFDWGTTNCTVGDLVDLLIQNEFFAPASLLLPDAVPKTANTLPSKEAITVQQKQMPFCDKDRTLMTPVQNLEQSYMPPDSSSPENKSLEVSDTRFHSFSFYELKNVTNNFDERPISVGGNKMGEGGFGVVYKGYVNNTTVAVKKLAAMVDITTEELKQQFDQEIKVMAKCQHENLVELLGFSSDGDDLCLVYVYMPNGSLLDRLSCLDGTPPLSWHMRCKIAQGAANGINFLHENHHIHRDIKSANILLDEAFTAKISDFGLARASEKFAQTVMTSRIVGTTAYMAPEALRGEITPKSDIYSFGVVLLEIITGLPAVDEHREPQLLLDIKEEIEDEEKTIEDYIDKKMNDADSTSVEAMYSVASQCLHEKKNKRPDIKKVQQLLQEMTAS

The target of this assay is GST tagged IRAK4 (Homo sapiens (Human), UniProt Q9NWZ3). Briefly: IRAK4 Kinase Assay (IMAP fluorescence polarization). The class given is biochemical. As to conditions: 0.5 nM GST tagged IRAK4, 100 nM fluorescent peptide substrate RP7030, 100 μM ATP, 30 minutes at 25° C., IMAP FP readout. As to the method:
The kinase activity of IRAK4 is determined by its ability to catalyze the phosphorylation of a fluorescent polypeptide substrate. The extent of phosphorylation is measured using the IMAP technology (Molecular Devices) where the phosphorylated fluorescent substrate binds to the large M(III)-based nanoparticles which reduces the rotational speed of the substrate and thus increases its fluorescent polarization (FP).
20 μL reaction mixture contains 10 mM TriHCl, pH 7.2, 0.5 nM GST tagged IRAK4 (SignalChem), 100 nM fluorescent peptide substrate (RP7030, Molecular Devices), 100 μM ATP, 1 mM DDT, 1 mM MgCl2, and 0.01% Tween 20. The reaction is initiated by the addition of ATP. After incubation for 30 minutes at 25° C., 60 μL of Progressive IMAP Reagent (Molecular Devices) is added to stop the reaction. Change in RP7030's FP is determined by a FP reader (Analyst HT, LJL BioSystems).
Molecule `Cc1ccc2ncnc(N[C@H]3CC[C@H](N[C@@H](C)C(C)(C)O)CC3)c2c1` [Example 2-23, (3S)-2-methyl-3-({trans-4-[(6-methylquinazolin-4-yl)amino]cyclohexyl}amino)butan-2-ol] gave a pIC50 of 6.91. The figure for `Cc1ccc2ncnc(N[C@H]3CC[C@H](NCC4CCOCC4)CC3)c2c1` [Example 2-18, trans-N-(6-methylquinazolin-4-yl)-N′-(tetrahydro-2H-pyran-4-ylmethyl)cyclohexane-1,4-diamine] is 7.34; for `Cc1ccc2ncnc(N[C@H]3CC[C@H](N4CCC5(COC5)C4)CC3)c2c1` [Example 2-9, 6-methyl-N-[trans-4-(2-oxa-6-azaspiro[3.4]oct-6-yl)cyclohexyl]quinazolin-4-amine] it is 7.02; for `Cc1ccc2ncnc(N[C@H]3CC[C@H](N[C@H]4CCOC(C)(C)C4)CC3)c2c1` [Example 2-19, trans-N-[(4S)-2,2-dimethyltetrahydro-2H-pyran-4-yl]-N′-(6-methylquinazolin-4-yl)cyclohexane-1,4-diamine] it is 7.27. The figure for `Cc1ccc2ncnc(N[C@H]3CC[C@@H](N4CC(F)C4)CC3)c2c1` [Example 2-2, N-[cis-4-(3-fluoroazetidin-1-yl)cyclohexyl]-6-methylquinazolin-4-amine] is 5.86; for `Cc1ccc2ncnc(N[C@H]3CC[C@H](N4CC5(COC5)C4)CC3)c2c1` [Example 6-2, N-((trans)-4-(2-oxa-6-azaspiro[3.3]heptan-6-yl)cyclohexyl)-6-methylquinazolin-4-amine] it is 7.00.

`Cc1ccc2ncnc(N[C@H]3CC[C@H](NCCC(F)(F)F)CC3)c2c1` [Example 2-28, trans-N-(6-methylquinazolin-4-yl)-N′-(3,3,3-trifluoropropyl)cyclohexane-1,4-diamine] gave a pIC50 of 7.60. Take `COC/C=C/c1ccc2ncnc(N[C@H]3CC[C@H](N(C)C)CC3)c2c1` [Example 3-3, trans-N′-{6-[(1E)-3-methoxyprop-1-en-1-yl]quinazolin-4-yl}-N,N-dimethylcyclohexane-1,4-diamine]: the pIC50 is 7.27. Turning to `CCc1ccc2ncnc(N[C@H]3CC[C@H](N(C)C)CC3)c2c1` [Example 4-1, (trans)-N1-(6-ethylquinazolin-4-yl)-N4,N4-dimethylcyclohexane-1,4-diamine], the pIC50 is 7.74. Turning to `Cc1ccc2ncnc(N[C@H]3CC[C@H](NCC4(C)COC4)CC3)c2c1` [Example 2-27, trans-N-[(3-methyloxetan-3-yl)methyl]-N′-(6-methylquinazolin-4-yl)cyclohexane-1,4-diamine], the pIC50 is 7.11. This pIC50 is 0.63 log units lower than that of the molecule before. `Cc1ccc2ncnc(N[C@H]3CC[C@H](NCC(C)(C)C)CC3)c2c1` [Example 2-29, trans-N-(2,2-dimethylpropyl)-N′-(6-methylquinazolin-4-yl)cyclohexane-1,4-diamine]: the pIC50 was 7.16. The figure for `Cc1ccc2ncnc(NC3CCC(N4CCCC(C(F)(F)F)C4)CC3)c2c1` (stereo not shown) [Example 2-16, 6-methyl-N-{4-[3-(trifluoromethyl)piperidin-1-yl]cyclohexyl}quinazolin-4-amine] is 6.57; for `FC(F)(F)c1ccc2ncnc(N[C@H]3CC[C@H](N4CCOCC4)CC3)c2c1` [Example 1-4, N-(trans-4-morpholin-4-ylcyclohexyl)-6-(trifluoromethyl)quinazolin-4-amine] it is 7.82.

As for `Cc1ccc2ncnc(O[C@H]3CC[C@H](N4CCOCC4)CC3)c2c1` [Example 1-7, 4-((trans)-4-((6-methylquinazolin-4-yl)oxy)cyclohexyl)morpholine], the pIC50 was 7.19. `Cc1ccc2ncnc(NC3CCC(N4CCC(C(F)(F)F)CC4)CC3)c2c1` (stereo not shown) [Example 2-12, 6-methyl-N-{4-[4-(trifluoromethyl)piperidin-1-yl]cyclohexyl}quinazolin-4-amine] had a pIC50 of 5.03. For the molecule `CN(C)[C@H]1CC[C@H](Nc2ncnc3ccc(CCO)cc23)CC1` [Example 5-1, 2-(4-(((trans)-4-(dimethylamino)cyclohexyl)amino)quinazolin-6-yl)ethan-1-ol], the pIC50 is 7.77. The value for `Cc1ccc2ncnc(N[C@H]3CC[C@H](N(C)C)CC3)c2c1` [Example 1-2, trans-N,N-dimethyl-N′-(6-methylquinazolin-4-yl)cyclohexane-1,4-diamine] was 7.72; that for `CN(C)[C@H]1CC[C@H](Nc2ncnc3ccc(C(F)(F)F)cc23)CC1` [Example 1-6, trans-N,N-dimethyl-N′-[6-(trifluoromethyl)quinazolin-4-yl]cyclohexane-1,4-diamine] was 8.05; that for `OCCCc1ccc2ncnc(N[C@H]3CC[C@H](N4CCOCC4)CC3)c2c1` [Example 5-2, 3-{4-[(trans-4-morpholin-4-ylcyclohexyl)amino]quinazolin-6-yl}propan-1-ol] was 8.00. In the case of `Cc1ccc2ncnc(N[C@H]3CC[C@H](N4CCS(=O)(=O)CC4)CC3)c2c1` [Example 6-1, 4-((trans)-4-((6-methylquinazolin-4-yl)amino)cyclohexyl)thiomorpholine-1,1-dioxide], the negative logarithm of the IC50 (pIC50) is 6.21. The figure for `OCCCCc1ccc2ncnc(N[C@H]3CC[C@H](N4CCOCC4)CC3)c2c1` [Example 5-3, 4-{4-[(trans-4-morpholin-4-ylcyclohexyl)amino]quinazolin-6-yl}butan-1-ol] is 7.17; for `CC(O)CCc1ccc2ncnc(N[C@H]3CC[C@H](N4CCOCC4)CC3)c2c1` (stereo partly drawn) [Example 7-1, 4-(4-(((trans)-4-Morpholinocyclohexyl)amino)quinazolin-6-yl)butan-2-ol] it is 7.21.

For `Cc1ccc2ncnc(N[C@H]3CC[C@H](NC(C)C)CC3)c2c1` [Example 2-24, trans-N-(1-methylethyl)-N′-(6-methylquinazolin-4-yl)cyclohexane-1,4-diamine], the pIC50 is 7.36. The value for `CCCCc1ccc2ncnc(N[C@H]3CC[C@H](N4CCOCC4)CC3)c2c1` [Example 4-3, 6-butyl-N-(trans-4-morpholin-4-ylcyclohexyl)quinazolin-4-amine] was 7.47; that for `CC(O)c1ccc2ncnc(N[C@H]3CC[C@H](N(C)C)CC3)c2c1` (stereo partly drawn) [Example 5-4, 1-(4-{[trans-4-(dimethylamino)cyclohexyl]amino}quinazolin-6-yl)ethanol] was 7.54. The molecule `CN(C)[C@H]1CC[C@H](Nc2ncnc3ccc(/C=C/C4CC4)cc23)CC1` [Example 3-1, (trans)-N1-(6-((E)-2-cyclopropylvinyl)quinazolin-4-yl)-N4,N4-dimethylcyclohexane-1,4-diamine] had a pIC50 of 6.84. Compared with the last molecule, the pIC50 is 0.70 log units lower. As to `Cc1ccc2ncnc(N[C@H]3CC[C@H](N[C@@H](C)CC(F)(F)F)CC3)c2c1` [Example 2-22, trans-N-(6-methylquinazolin-4-yl)-N′-[(1S)-3,3,3-trifluoro-1-methylpropyl]cyclohexane-1,4-diamine], the pIC50 is 7.17. Regarding `N#CCCCc1ccc2ncnc(N[C@H]3CC[C@H](N4CCOCC4)CC3)c2c1` [Example 3-5, 4-(4-(((trans)-4-morpholinocyclohexyl)amino)quinazolin-6-yl)butanenitrile], the pIC50 was 6.85. The value for `Cc1ccc2ncnc(N[C@H]3CC[C@H](N4CC(S(C)(=O)=O)C4)CC3)c2c1` [Example 2-1, 6-methyl-N-((1R,4R)-4-(3-(methylsulfonyl)azetidin-1-yl)cyclohexyl)quinazolin-4-amine] was 6.42.

`Cc1ccc2ncnc(NC3CCC(N4CCCCC4C(F)(F)F)CC3)c2c1` (stereo not shown) [Example 2-14, 6-methyl-N-{4-[2-(trifluoromethyl)piperidin-1-yl]cyclohexyl}quinazolin-4-amine] had a pIC50 of 5.49. The value for `CCCc1ccc2ncnc(N[C@H]3CC[C@H](N4CCOCC4)CC3)c2c1` [Example 4-4, N-(trans-4-morpholin-4-ylcyclohexyl)-6-propylquinazolin-4-amine] was 7.96; that for `Cc1cc2ncnc(N[C@H]3CC[C@H](N(C)C)CC3)c2cc1C` [Example 1-1, (trans)-N1-(6,7-dimethylquinazolin-4-yl)-N4,N4-dimethylcyclohexane-1,4-diamine] was 5.92.

For `Cc1ccc2ncnc(N[C@H]3CC[C@H](NCC4CC4)CC3)c2c1` [Example 2-25, trans-N-(cyclopropylmethyl)-N′-(6-methylquinazolin-4-yl)cyclohexane-1,4-diamine], the pIC50 is 7.51. This pIC50 is 1.59 log units higher than that of the molecule before. `Cc1ccc2ncnc(N[C@H]3CC[C@H](N[C@@H](C)CS(C)(=O)=O)CC3)c2c1` [Example 2-31, trans-N-[(1S)-1-methyl-2-(methylsulfonyl)ethyl]-N′-(6-methylquinazolin-4-yl)cyclohexane-1,4-diamine] gave a pIC50 of 7.25. Compared with the last molecule, the pIC50 is 0.26 log units lower.

Molecule `CCc1ccc2ncnc(N[C@H]3CC[C@H](N4CCOCC4)CC3)c2c1` [Example 3-4, 6-ethyl-N-(trans-4-morpholin-4-ylcyclohexyl)quinazolin-4-amine] had a pIC50 of 8.10. In the case of `Cc1ccc2ncnc(N[C@H]3CC[C@@H](N4CC(S(C)(=O)=O)C4)CC3)c2c1` [Example 2-10, 6-methyl-N-{cis-4-[3-(methylsulfonyl)azetidin-1-yl]cyclohexyl}quinazolin-4-amine], the pIC50 was 6.42. Turning to `Cc1ccc2ncnc(N[C@H]3CC[C@@H](N4CC(O)C4)CC3)c2c1` [Example 2-7, 1-{cis-4-[(6-methylquinazolin-4-yl)amino]cyclohexyl}azetidin-3-ol], the pIC50 was 7.43.

Source of the values: patent publication US9926330B2, “Inhibitors of IRAK4 activity” (MERCK SHARP & DOHME CORP., priority 2014, dated 2018).
